Inhibition of growth, melting point and pest or weed control data for 20 molecules are collected here from patent publication US10952436B2, “Microbiocidal quinoline (thio)carboxamide derivatives” (SYNGENTA PARTICIPATIONS AG, priority 2017, dated 2021).

Data set [1] has as its system Magnaporthe grisea (Pyricularia oryzae). As to the kind of experiment: microbe, parasite or virus in culture. The note with it: read-out: control of Magnaporthe grisea. The format is cell-based.
Data set [2] concerns Glomerella lagenarium (Colletotrichum lagenarium). As to the kind of experiment: Glomerella lagenarium (Colletotrichum lagenarium)/Liquid Culture (Anthracnose). The data set is classed as cell-based. The note with it: Colletotrichum orbiculare; 200 ppm; liquid culture, compared to untreated control, 3-4 days after application; read-out: control of Glomerella lagenarium.
The subject of data set [3] is Monographella nivalis (Microdochium nivale). As to the kind of experiment: Monographella nivalis (Microdochium nivale)/Liquid Culture (Foot Rot Cereals). The data set is classed as cell-based. The settings on record: 200 ppm, liquid culture, compared to untreated control, 4-5 days after application, read-out: control of Monographella nivalis.
In data set [4] the test system is Fusarium culmorum. As to the kind of experiment: microbe, parasite or virus in culture. The format is cell-based. The note with it: read-out: control of Fusarium culmorum.
For data set [5], the system named is Botryotinia fuckeliana (Botrytis cinerea). As to the kind of experiment: Botryotinia fuckeliana (Botrytis cinerea)/Liquid Culture (Gray Mould). The data set is classed as cell-based. The settings on record: 200 ppm, liquid culture, compared to untreated control, 3-4 days after application, read-out: control of Botryotinia fuckeliana.
For data set [6], the system named is Fusarium culmorum. As to the kind of experiment: whole plant or invertebrate. The data set is classed as in vivo. The settings on record: in Triticum aestivum, read-out: control of Fusarium culmorum.

With `CC(C)CC(C)(Cc1ccccc1)C(=O)Nc1cnc2c(Cl)cccc2c1` (stereo not drawn) [Compound E-9, 2-benzyl-N-(8-chloro-3-quinolyl)-2,4-dimethyl-pentanamide], the melting point (commonly the temperature of the solid-liquid transition) lay in the range of 163 to 165 °C. In addition, the inhibition of growth at 200 ppm in data set [1] is at least 80%. In data set [2], the inhibition of growth at 200 ppm is at least 80%. Besides, the inhibition of growth at 200 ppm in data set [3] was at least 80%. In addition, the inhibition of growth at 200 ppm in data set [4] is at least 80%. The inhibition of growth at 200 ppm in data set [5] is at least 80%.
Turning to `COCN(C(=O)C(C)(Cc1ccccc1)CC(F)(F)F)c1cnc2c(F)cccc2c1` (stereo not drawn) [Compound E-33, 2-benzyl-4,4,4-trifluoro-N-(8-fluoro-3-quinolyl)-N-(methoxymethyl)-2-methyl-butanamide], the melting point is 108 to 110 °C. Further, the inhibition of growth at 200 ppm in data set [1] is at least 80%. Also, the inhibition of growth at 200 ppm in data set [2] was at least 80%. Moreover, the inhibition of growth at 200 ppm in data set [4] is at least 80%. Besides, the inhibition of growth at 200 ppm in data set [5] is at least 80%.
Molecule `CC(Cc1ccccc1)C(=O)Nc1cnc2c(F)cccc2c1` (stereo not drawn) [Compound E-31, N-(8-fluoro-3-quinolyl)-2-methyl-3-phenyl-propanamide] displayed a melting point of 188 to 190 °C. Besides, the inhibition of growth at 200 ppm in data set [1] was at least 80%. The inhibition of growth at 200 ppm in data set [2] is at least 80%. Moreover, the inhibition of growth at 200 ppm in data set [4] is at least 80%. For the same molecule, the inhibition of growth at 200 ppm in data set [5] is at least 80%.
`C=C(C)CC(Cc1ccccc1)C(=O)Nc1cc2cccc(F)c2nc1C` (stereo not drawn) [Compound E-92, 2-benzyl-N-(8-fluoro-2-methyl-3-quinolyl)-4-methyl-pent-4-enamide] registered a melting point of 97 to 99 °C. Also, the pest or weed control at 200 ppm in data set [6] is at least 80%. In data set [2], the inhibition of growth at 200 ppm is at least 80%. Further, the inhibition of growth at 200 ppm in data set [4] was at least 80%. In data set [5], the inhibition of growth at 200 ppm is at least 80%.
On to `COC(Cc1ccccc1)(CC(C)C)C(=O)Nc1cnc2c(F)cccc2c1` (stereo not drawn) [Compound E-38, 2-benzyl-N-(8-fluoro-3-quinolyl)-2-methoxy-4-methyl-pentanamide], for which the melting point fell in the range of 133 to 135 °C. For the same molecule, in data set [6], the pest or weed control at 200 ppm is at least 80%. Moreover, the inhibition of growth at 200 ppm in data set [1] was at least 80%. The inhibition of growth at 200 ppm in data set [2] is at least 80%. In addition, the inhibition of growth at 200 ppm in data set [4] was at least 80%. Further, in data set [5], the inhibition of growth at 200 ppm was at least 80%.
As for `C=C(CC)CC(C)(Cc1ccccc1)C(=O)Nc1cnc2c(F)cccc2c1` (stereo not drawn) [Compound E-54, 2-benzyl-N-(8-fluoro-3-quinolyl)-2-methyl-4-methylene-hexanamide], the melting point was in the range of 118 to 120 °C. For the same molecule, in data set [1], the inhibition of growth at 200 ppm was at least 80%. Moreover, in data set [2], the inhibition of growth at 200 ppm is at least 80%. In addition, the inhibition of growth at 200 ppm in data set [4] was at least 80%. Besides, the inhibition of growth at 200 ppm in data set [5] was at least 80%.
The molecule `CC(C)=CC(C)(Cc1ccccc1)C(=O)Nc1cnc2c(F)cccc2c1` (stereo not drawn) [Compound E-48, 2-benzyl-N-(8-fluoro-3-quinolyl)-2,4-dimethyl-pent-3-enamide] gave a melting point of 167 to 169 °C. Also, the pest or weed control at 200 ppm in data set [6] is at least 80%. Moreover, in data set [1], the inhibition of growth at 200 ppm is at least 80%. Further, the inhibition of growth at 200 ppm in data set [2] was at least 80%. Also, the inhibition of growth at 200 ppm in data set [4] was at least 80%. Besides, in data set [5], the inhibition of growth at 200 ppm is at least 80%.
`COC(C)(Cc1ccccc1)C(=O)Nc1cnc2c(F)cccc2c1` (stereo not drawn) [Compound E-43, N-(8-fluoro-3-quinolyl)-2-methoxy-2-methyl-3-phenyl-propanamide] had a melting point of 107 to 109 °C. Besides, the pest or weed control at 200 ppm in data set [6] was at least 80%. Besides, in data set [1], the inhibition of growth at 200 ppm is at least 80%. Also, the inhibition of growth at 200 ppm in data set [2] was at least 80%. Besides, in data set [3], the inhibition of growth at 200 ppm is at least 80%. Besides, in data set [4], the inhibition of growth at 200 ppm is at least 80%. Besides, the inhibition of growth at 200 ppm in data set [5] is at least 80%.
Molecule `Cc1cccc2cc(NC(=O)C(C)(Cc3ccccc3)CC(F)(F)F)cnc12` (stereo not drawn) [Compound E-59, 2-benzyl-4,4,4-trifluoro-2-methyl-N-(8-methyl-3-quinolyl)butanamide] showed a melting point of 123 to 125 °C. For the same molecule, the pest or weed control at 200 ppm in data set [6] is at least 80%. Moreover, the inhibition of growth at 200 ppm in data set [1] is at least 80%. Also, the inhibition of growth at 200 ppm in data set [2] was at least 80%. In addition, the inhibition of growth at 200 ppm in data set [3] was at least 80%. Also, in data set [4], the inhibition of growth at 200 ppm is at least 80%. In addition, the inhibition of growth at 200 ppm in data set [5] is at least 80%.
Consider `C/C=C\CC(C)(Cc1ccccc1)C(=O)Nc1cnc2c(F)cccc2c1` (stereo not drawn) [Compound E-28, (Z)-2-benzyl-N-(8-fluoro-3-quinolyl)-2-methyl-hex-4-enamide], for which the melting point was in the range of 128 to 130 °C. The pest or weed control at 200 ppm in data set [6] was at least 80%. In addition, in data set [1], the inhibition of growth at 200 ppm is at least 80%. Moreover, in data set [2], the inhibition of growth at 200 ppm is at least 80%. Further, the inhibition of growth at 200 ppm in data set [3] was at least 80%. In data set [4], the inhibition of growth at 200 ppm was at least 80%. Further, the inhibition of growth at 200 ppm in data set [5] is at least 80%.
For `COC(Cc1ccccc1)(CC(C)C)C(=O)Nc1cc2cccc(F)c2nc1C` (stereo not drawn) [Compound E-37, 2-benzyl-N-(8-fluoro-2-methyl-3-quinolyl)-2-methoxy-4-methyl-pentanamide], the melting point was 92 to 94 °C. Besides, the pest or weed control at 200 ppm in data set [6] is at least 80%. In addition, the inhibition of growth at 200 ppm in data set [1] was at least 80%. Moreover, the inhibition of growth at 200 ppm in data set [2] is at least 80%. Besides, the inhibition of growth at 200 ppm in data set [3] was at least 80%. Moreover, in data set [4], the inhibition of growth at 200 ppm is at least 80%. In data set [5], the inhibition of growth at 200 ppm is at least 80%.
For `CC(C)(C)C(Cc1ccccc1)C(=O)Nc1cnc2c(F)cccc2c1` (stereo not drawn) [Compound E-88, 2-benzyl-N-(8-fluoro-3-quinolyl)-3,3-dimethyl-butanamide], the melting point is 212 to 215 °C. Besides, the pest or weed control at 200 ppm in data set [6] is at least 80%. Moreover, the inhibition of growth at 200 ppm in data set [1] is at least 80%. For the same molecule, in data set [4], the inhibition of growth at 200 ppm was at least 80%. For the same molecule, the inhibition of growth at 200 ppm in data set [5] is at least 80%.
`C=C(C)CC(C)(Cc1ccccc1)C(=O)Nc1cnc2c(Br)cccc2c1` (stereo not drawn) [Compound E-63, 2-benzyl-N-(8-bromo-3-quinolyl)-2,4-dimethyl-pent-4-enamide] had a melting point of 165 to 169 °C. Besides, the pest or weed control at 200 ppm in data set [6] was at least 80%. Moreover, the inhibition of growth at 200 ppm in data set [1] is at least 80%. Besides, the inhibition of growth at 200 ppm in data set [4] is at least 80%. In addition, the inhibition of growth at 200 ppm in data set [5] was at least 80%.
For the molecule `C=CCC(C)(Cc1ccccc1)C(=O)Nc1cnc2c(F)cccc2c1` (stereo not drawn) [Compound E-78, 2-benzyl-N-(8-fluoro-3-quinolyl)-2-methyl-pent-4-enamide], the melting point was 146 to 149 °C. For the same molecule, the pest or weed control at 200 ppm in data set [6] was at least 80%. In addition, the inhibition of growth at 200 ppm in data set [2] was at least 80%. The inhibition of growth at 200 ppm in data set [3] is at least 80%. The inhibition of growth at 200 ppm in data set [4] is at least 80%. Besides, the inhibition of growth at 200 ppm in data set [5] was at least 80%.
In the case of `CC(Cc1ccccc1)(CC(F)(F)F)C(=O)Nc1cnc2c(F)c(F)ccc2c1` (stereo not drawn) [Compound E-60, 2-benzyl-N-(7,8-difluoro-3-quinolyl)-4,4,4-trifluoro-2-methyl-butanamide], the melting point was in the range of 183 to 186 °C. For the same molecule, the pest or weed control at 200 ppm in data set [6] is at least 80%. The inhibition of growth at 200 ppm in data set [1] is at least 80%. Moreover, the inhibition of growth at 200 ppm in data set [2] is at least 80%. The inhibition of growth at 200 ppm in data set [3] was at least 80%. For the same molecule, the inhibition of growth at 200 ppm in data set [4] was at least 80%. For the same molecule, the inhibition of growth at 200 ppm in data set [5] was at least 80%.
The molecule `C=C(C)CC(Cc1ccccc1)C(=O)Nc1cnc2c(F)cccc2c1` (stereo not drawn) [Compound E-94, 2-benzyl-N-(8-fluoro-3-quinolyl)-4-methyl-pent-4-enamide] gave a melting point of 170 to 172 °C. Also, the inhibition of growth at 200 ppm in data set [2] is at least 80%. Further, the inhibition of growth at 200 ppm in data set [3] was at least 80%. Further, the inhibition of growth at 200 ppm in data set [4] is at least 80%. For the same molecule, the inhibition of growth at 200 ppm in data set [5] was at least 80%.
For the molecule `C=C(Cl)CC(Cc1ccccc1)C(=O)Nc1cnc2c(F)cccc2c1C` (stereo not drawn) [Compound E-5, 2-benzyl-4-chloro-N-(8-fluoro-4-methyl-3-quinolyl)pent-4-enamide], the melting point was in the range of 53 to 58 °C. Also, the pest or weed control at 200 ppm in data set [6] was at least 80%. In data set [2], the inhibition of growth at 200 ppm was at least 80%. Also, the inhibition of growth at 200 ppm in data set [3] is at least 80%. In addition, in data set [4], the inhibition of growth at 200 ppm was at least 80%. For the same molecule, in data set [5], the inhibition of growth at 200 ppm is at least 80%.
Molecule `CC(Cc1ccccc1)(CC(F)(F)F)C(=O)Nc1cnc2cc(F)ccc2c1` (stereo not drawn) [Compound E-52, 2-benzyl-4,4,4-trifluoro-N-(7-fluoro-3-quinolyl)-2-methyl-butanamide] registered a melting point of 180 to 182 °C. In addition, the inhibition of growth at 200 ppm in data set [1] was at least 80%. The inhibition of growth at 200 ppm in data set [2] is at least 80%. For the same molecule, the inhibition of growth at 200 ppm in data set [3] was at least 80%. For the same molecule, the inhibition of growth at 200 ppm in data set [4] is at least 80%. Besides, the inhibition of growth at 200 ppm in data set [5] is at least 80%.
The molecule `C=C(C)C[C@](C)(Cc1ccccc1)C(=O)Nc1cnc2c(F)cccc2c1` [Compound F-22, (2R)-2-benzyl-N-(8-fluoro-3-quinolyl)-2,4-dimethyl-pent-4-enamide] showed a melting point of 133 to 135 °C. Also, in data set [2], the inhibition of growth at 200 ppm was at least 80%. The inhibition of growth at 200 ppm in data set [3] is at least 80%. In data set [4], the inhibition of growth at 200 ppm is at least 80%. In addition, the inhibition of growth at 200 ppm in data set [5] was at least 80%.
The molecule `Cc1c(NC(=O)C(C)(Cc2ccccc2)CC(C)C)cnc2c(F)cccc12` (stereo not drawn) [Compound E-84, 2-benzyl-N-(8-fluoro-4-methyl-3-quinolyl)-2,4-dimethyl-pentanamide] gave a melting point of 73 to 79 °C. In addition, the pest or weed control at 200 ppm in data set [6] was at least 80%. For the same molecule, the inhibition of growth at 200 ppm in data set [2] was at least 80%. Further, the inhibition of growth at 200 ppm in data set [3] was at least 80%. Also, the inhibition of growth at 200 ppm in data set [4] is at least 80%. Also, the inhibition of growth at 200 ppm in data set [5] was at least 80%.
